Reference: US12357702B2, “Peptidic diagnostic compositions” (S. M. Discovery Group Inc., priority 2013, dated 2025)
Where a SMILES comes first, the peptide text is derived from it. Where no end group is shown, it is not given here. The star is where a group is joined. RhodamineB = CCN(CC)c1ccc2c(-c3ccccc3C(=O)*)c3ccc(=[N+](CC)CC)cc-3oc2c1; 5FAM = O=C1OC2(c3ccc(O)cc3Oc3cc(O)ccc32)c2ccc(C(=O)*)cc21; FAM = fluorescein amidite label

Tests used:
hCMEC/D3 cells [1] = experiment: LDH cytotoxicity assay; assay type: cell-based, human; conditions: 24 h; for LDH leakage in the medium compared to the control: 1 to 20 μM peptide
Procedure: Cell viability assessment following treatment of cells with the fluorescent peptide FIG. 26A or siRNA/FAM-CGY complex FIG. 26B for 24 h, determined by LDH assay (n=6). Background: untreated cells. To examine the cytotoxicity of the peptide and the siRNA/FAM-CGY complex, the hCMEC/D3 cells were incubated with concentrations 1, 2, 5, 10, 20 μM of the peptide and different relations of siRNA/FAM-CGY complexes (8:5, 16:5 or 24:5) for 24 h, the viability of cells without treatment was used as a control. The cytotoxicity was measured by a LDH assay. The LDH assay measures the membrane integrity as a function of the amount of cytoplasmic LDH leaked into the medium.
The cytoxicity of FAM-CGY peptide and siRNA/FAM-CGY complex was evaluated by […] (LDH) assay (FIG. 26). The hCMEC/D3 cells were incubated with different concentrations of the peptide (from 1 to 20 μM) and different formulations of siRNA/FAM-CGY complexes for 24 h. The viability of cells without treatment was used as a control. The LDH assay has means of measuring the membrane integrity as a function of the amount of cytoplasmic LDH leaked into the medium. […] Thus, there were no significant differences observed between the groups treated with FAM-CGY, FAM-d-CGY and CGY-FAM.

[2] = tested on: brain capillary endothelial cells; conditions: cited from earlier work
hCMEC/D3 cells [3] = experiment: double peptide-mediated GFP plasmid transfection; assay type: cell-based, human
Procedure: To evaluate double peptide (DP)-mediated gene transfection, different concentrations of DP and constant amounts of pcDNA3.1 NT-GFP expression plasmid (0.3 μg) (the peptide/DNA change ration of 1:10, 1:20 and 1:40 were investigated in this study) were mixed into 50 μL serum free media, and complexes were formed for 1 h at room temperature, after which another 150 μL serum free media was added (total volume of peptide/DNA complex was 200 μL). The cultured hCMEC/D3 cells (2×10^4 cells) were overlaid with 200 μL peptide/DNA complex, followed by incubation for 4 h at 37° C. in 5% CO2 atmosphere. The cultures were then a washed once with serum-free media and transferred to complete media containing 5% serum for growth. After 48 h, GFP gene expressions were monitored by fluorescence microscopy. Lipofectamine® 2000-mediated transfections were performed as described by the manufacturer's protocol (Life Technologies, CA, USA).

[4] = tested on: complement activation products SC5d-9, C5a, and C3a; experiment: complement activation in human serum; conditions: healthy human serum, low and high concentration
Procedure: FIGS. 12A, 12B, and 12C are graphs illustrating a complement activation experiment. The complement activation products FIG. 12A. […], FIG. 12B. C5a, and FIG. 12C. C3a were quantified in healthy human serum after incubation of CGY, FAM-CGY and FAM-d-CGY peptide at low and high concentration. Background noise and positive control (Zymosan) are presented for each product. Complement activation and fixation is a fundamental process contributing to macrophage clearance of intravenously injected nanopaticles. Accordingly, complement activation studies in human serum were performed with low and high concentrations of FAM-CGY peptide and other peptides (CGY, FAM-d-CGY) for comparison. […] The responses were relatively low, and close to the background activation. Only a slight level of complement activation was observed compared to the positive control (Zymosan). There were no systematic differences between the activation below and above CMC. Conclusion: The FAM-CGY nanoparticles are unlikely to induce complement-mediated immune reactions following intravenous injection.

[5] = Nanoparticle Tracking Analysis (NTA) of peptide self-assembly; assay type: physicochemical; conditions: in MQ water
Procedure: To investigate whether the polypeptide conjugate can self-assemble, Nanoparticle Tracking Analysis (NTA) technology was employed to detect the peptide aggregation. Briefly, 1 mL peptide solutions with different concentrations (0.5, 1, 2.5 and 5 μM) were prepared by diluting the peptide stock solutions (500 μM) with MQ water and incubate for 30 min at room temperature. NTA measurements were performed with a NanoSight LM20 (NanoSight Ltd., Amesbury, United Kingdom) equipped with a sample chamber with a 405 nm blue laser and a Viton fluoroelastomer O-ring. The peptide samples were injected in the sample chamber with sterile syringes (BD Discardit II, New Jersey, USA) until the liquid reached the tip of the nozzle. All measurements were performed at room temperature. For the pH effect of FAM-CGY peptide assembly, FAM-CGY stock solution (500 μM) was diluted into 5 μM with 10 mM HEPES buffer where pH values were adjusted with 1 M HCl or 1 M NaOH, respectively.
Different molar rates of siRNA were added to the FAM-CGY peptide solution (50 μM/L) dropwise in saline solution and incubated for 30 min. […] The atomic force microscopy (AFM) (FIG. 22A), nanoparticle tracking analysis (NTA) (FIG. 22B), fluorescence microscopy (not shown), dynamic light scattering (DLS) technology (not shown) and transmission electron microscopy (TEM) (FIG. 23) were employed to characterize the siRNA/FAM-CGY complex. […]

hCMEC/D3 cells [6] = experiment: delivery of cargo peptides by Rh-CGY or CGY peptidic complexes (microscopy, FACS); assay type: cell-based, human; conditions: 10 μM Rh-CGY or CGY peptide, 24 h
Procedure: Peptidic complexes were formed by drop addition of cargoes (FAM-(C)-NAP, FAM-GYR, FAM-NAP, FAM) to 80 μM rhodamine-conjugated CGY peptide (Rh-CGY) or 80 μM CGY peptide (Table X) in MilliQ (MQ) water with equitable liquid volume and incubated for 60 min. The mixture was diluted with MQ water to a final Rh-CGY or CGY peptide concentration of 10 μM. The peptidic complexes were characterized by NTA for size and electron microscopy (EM) for mophology. Western blot was also employed to detect disulfide bond, which form between the cargo and Rh-CGY peptide or CGY peptide. Briefly, the peptide or complex samples were loaded on 10% Bis-Tris mini gels (Invitrogen, CA, USA) and subjected to electrophoresis. The separated samples were electrophoretically transferred to PVDF membranes by use of an iBlot™ Gel Transfer Device (Life Technologies, USA). Membranes were blocked for 1 h at room temperature in 3% BSA/TBST (137 mM Sodium Chloride, 20 mM Tris, 0.1% Tween-20, pH 7.6), and incubated over night at 4° C. with HRP-Goat anti-Fluorescein antibody (diluted 1:1000 in 2% BSA/TBST). For detection, membranes were incubated with Novex® ECL Chemiluminescent Substrate Reagent Kit (Invitrogen, CA, USA).
Delivery peptide to hCMEC/D3 cells. […] Live cell images were obtained by widefield microscopy, and the intercellular fluorescence intensity was quantified by FACS.

hCMEC/D3 cells [7] = experiment: uptake of FAM-CGY and FAM-GYR-GYR peptides by FACS; assay type: cell-based, human; conditions: 1-10 μM, 24 h, all tested concentrations
Procedure: The different cellular uptake of FAM-CGY and FAM-GYR-GYR peptides in hCMEC/D3 cells was investigated by flow cytometry (FACS). hCMEC/D3 cells (2×10^4/cm^2) were seeded on 24-well plate (Corning, NY) and grown 2 days at 37° C. and 5% CO2 in order to reach 60%-70% confluency. The cells were washed 3 times with pre-heated PBS. The peptide uptake experiments were initiated by adding 200 μL of a range of FAM-CGY and FAM-GYR-GYR in different concentrations (1-10 μM/L, diluted in cell medium containing serum). The double peptide contains the sequence […](SEQ ID NO: 2) and optionally has an N-terminal cysteine residue.
After 24 h incubation at 37° C. with 5% CO2, each chamber was washed with pre-heated PBS 3 times, and harvested by trypsinization. A total of 10,000 cells were analyzed by flow cytometry (FACS Array™ Cell Analysis, BD, USA) (FIG. 35).

Compound: 5-FAM-dCys-dGly-dTyr-dArg-dPro-dVal-dHis-dAsn-dIle-dArg-dGly-dHis-dTrp-dAla-dPro-dGly [FAM-d-CGY]
- LDH leakage in the medium compared to the control (hCMEC/D3 cells [1]): did not significantly increase

Compound: GYRPVHNIRGHWAPG [SEQ ID NO: 1, targeting peptide of WO2011/005098]
- liposome uptake when peptide is coupled to liposomes [2]: did not significantly increase liposome uptake

Compound: GYRPVHNIRGHWAPGGGYRPVHNIRGHWAPG [DP]
- translocation of plasmids into cells (hCMEC/D3 cells [3]; charge ratios of peptide/DNA more than 20): able to mediate translocation of plasmids into cells
- transfection efficiency (GFP fluorescence intensity) (hCMEC/D3 cells [3]; peptide/DNA charge ratio 40:1, 48 h): comparable with commercial transfection reagent Lipofectamine® 2000

Compound: Cys-Gly-Tyr-Arg-Pro-Val-His-Asn-Ile-Arg-Gly-His-Trp-Ala-Pro-Gly-Lys-5-FAM (CGYRPVHNIRGHWAPGK(5FAM); not fully specified (C-terminus); printed as Cys-Gly-Tyr-Arg-Pro-Val-His-Asn-Ile-Arg-Gly-His-Trp-Ala-Pro-Gly-Lys-5-FAM) [CGY-FAM]
- LDH leakage in the medium compared to the control (hCMEC/D3 cells [1]): did not significantly increase

Compound: CC[C@H](C)[C@H](NC(=O)[C@H](CC(N)=O)NC(=O)[C@H](Cc1c[nH]cn1)NC(=O)[C@@H](NC(=O)[C@@H]1CCCN1C(=O)[C@H](CCCNC(=N)N)NC(=O)[C@H](Cc1ccc(O)cc1)NC(=O)CNC(=O)[C@H](CS)NC(=O)c1ccc2c(c1)C(=O)OC21c2ccc(O)cc2Oc2cc(O)ccc21)C(C)C)C(=O)N[C@@H](CCCNC(=N)N)C(=O)NCC(=O)N[C@@H](Cc1c[nH]cn1)C(=O)N[C@@H](Cc1c[nH]c2ccccc12)C(=O)N[C@@H](C)C(=O)N1CCC[C@H]1C(=O)NCC(=O)O [FAM-CGY] (5FAM-CGYRPVHNIRGHWAPG-OH)
- LDH leakage in the medium compared to the control (hCMEC/D3 cells [1]): did not significantly increase
- cytotoxicity (LDH assay) (hCMEC/D3 cells [1]): no significant cytotoxicity
- effect on the level of complement activation products SC5d-9, C5a, and C3a [4]: no significant effect

Compound: Rh-CGY: Rhdomine B conjugated with CGY peptide in the N-terminal (RhodamineB-CGYRPVHNIRGHWAPG)
- mean (average) size of self-assembly (NTA) [5]: 131±60 nm
- mode (modal size) of self-assembly (NTA) [5]: 94 nm
- uptake / delivery of cargo into hCMEC/D3 cells (hCMEC/D3 cells [6]): can efficiently enter the hCMEC/D3 cells

Compound: FAM-GYR-GYR: FAM-labelled double peptide containing SEQ ID NO: 2, two GYR sequences joined by a glycine residue ({FAM}-GYRPVHNIRGHWAPGGGYRPVHNIRGHWAPG)
- uptake compared with FAM-CGY peptide (FACS) (hCMEC/D3 cells [7]): considerably higher uptake
